According to paper PMC11638965, “Leveraging Dual-Ligase Recruitment to Enhance Protein Degradation via a Heterotrivalent Proteolysis Targeting Chimera” (Journal of the American Chemical Society, 2024):

How the values were obtained:
[1] = molecular target: BRD4 (Homo sapiens, UniProt O60885); assay: NanoBRET ubiquitination assay; format: cell-based; details: parental vs CRBN KO or VHL KO HiBiT-BRD4 cells, HaloTag-Ubiquitin, 12 nM to 3 μM, 4 h
Method: NanoBRET ubiquitination experiments were conducted using Promega kit ND2690. HEK293 HiBiT-BRD4 parental, VHL KO, or CRBN KO cells (all stably expressing LgBiT) were plated in 6-well plates at 800,000 cells/well and allowed to adhere for 4–6 h prior to being transfected with 2 μg of HaloTag-Ubiquitin Fusion Vector. Cells were allowed to express overnight, then were trypsinized and resuspended in Opti-MEM (reduced serum, no phenol red) 4% FBS at a concentration of 220,000 cells/mL. HaloTag NanoBRET 618 ligand was added at a final concentration of 100 nM to cells (with a portion of cells retained without ligand for use as no-acceptor controls for normalization). 90 μL of cells were then dispensed into each well of a tissue culture 96-well plate and cells were allowed to adhere overnight. The next day, media was aspirated from cells and replaced with 90 μL of a 1× solution of Opti-MEM 4% FBS containing a 1:100 dilution of Nano-Glo Vivazine substrate. […] 10 μL of each 10 × PROTAC was added to each well and the plate was immediately placed in a ClarioStar plate reader (prewarmed to 37 °C) where donor emission (460 nm) and acceptor emission (618 nm) was collected every 3 min for 4 h. NanoBRET ratios were calculated as described in the ternary complex assay.

[2] = test system: HEK293 cells; assay: TMT mass spectrometry proteomics; format: cell-based, Human; details: 250 nM, 4 h; for proteins significantly depleted/downregulated, proteome-wide: 7276 proteins detected, relative to DMSO
Method: S-Trap micro spin column digestion was performed according to the manufacturer’s protocol. Briefly, HEK293 cells were treated with DMSO, 250 nM neg-cis-AB3067 (95) or 250 nM AB3067 (27) for 4 h; cells were harvested and washed with PBS and spun. Cell pellets were solubilized in 5% SDS, 50 mM triethylammonium bicarbonate, reduced with 100 mM DTT solution and alkylated with iodoacetamide to a final concentration of 40 mM. Aqueous phosphoric acid was added to a final concentration of 1.2%. Protein particulate was formed by adding S-Trap binding buffer [90% aqueous methanol, 100 mM TEAB (pH 7.1)]. The mixture was placed on S-Trap micro 1.7 mL columns and centrifuged at 4000 × g for 10 s. Columns were washed with 150 μL of S-Trap binding buffer five times and centrifuged at 4000 × g for 10 s. Samples were digested with 2 μg of trypsin (Promega) at 37 °C for four h. Peptides were eluted with 40 μL of 50 mM TEAB followed by 40 μL of 0.2% aqueous formic acid, and peptides were finally vacuum-dried. TMT15plex labeling of DMSO, 250 nM neg-cis-AB3067 (95) or 250 nM AB3067 (27) conditions were performed, with five biological replicates for each condition and peptide cleanup was performed according to the manufacturer’s protocol. After checking the labeling efficiency, samples were combined, desalted, and dried under vacuum. TMT samples were fractionated using offline high-pH reverse-phase chromatography. Peptides were separated, concatenated to 22 fractions, dried, and peptides redissolved in 5% formic acid and analyzed by LC–MS.
The raw mass spectrometric data were loaded into MaxQuant. Enzyme specificity was set to that of trypsin/P, allowing for cleavage of N-terminal to proline residues and between aspartic acid and proline residues. Other parameters used were as follows: (i) variable modifications—methionine oxidation, protein N-acetylation; (ii) fixed modifications, cysteine carbamidomethylation; (iii) database: Uniprot; -Human (iv) labels: 15-plex TMT (v) MS/MS tolerance: FTMS- 20 ppm, (vi) minimum peptide length, 7; (vii) maximum missed cleavages, 2; and (viii) and (ix) PSM and Protein false discovery rate, 1%. Reporter ion intensities (corrected) results from MaxQuant were imported into excel for bioinformatic analysis. The normalized corrected reporter ion intensities for each label were used to calculate ratios, and all “Contaminant,″ “Reverse”, and “Only identified by site” proteins were removed from the data. Proteins above or below twofold change [log2(2) = 1], and a nominal p-value less than 0.03 [−log10(0.03) = 1.5] were considered as differentially expressed proteins. The final volcano plot was produced in GraphPad prism 10 version [10.2.2].

[3] = molecular target: T1, VHL (Homo sapiens, UniProt P40337); assay: Western blot dose-response degradation in HEK293 cells; format: cell-based; details: 1 μM to 100 pM, 6 h
T1 construct: host or cells: HEK293, transient
Procedure, shortened: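 HEK293 cells treated 6 h at 37 °C with compound over 1 μM to 100 pM alongside vehicle control; lysates in RIPA immunoblotted with target antibodies, tubulin as loading control, fluorescent detection. Band intensities fitted by linear regression to give pDC50; SD for two independent repeats, SEM for three.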

T1 sequence (P40337 whole entry): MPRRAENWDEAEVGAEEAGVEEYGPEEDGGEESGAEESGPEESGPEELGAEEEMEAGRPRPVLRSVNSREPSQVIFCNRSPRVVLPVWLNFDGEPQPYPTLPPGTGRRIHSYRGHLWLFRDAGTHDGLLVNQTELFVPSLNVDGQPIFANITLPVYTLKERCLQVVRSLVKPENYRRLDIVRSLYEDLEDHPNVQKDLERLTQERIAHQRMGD

VHL degradation (in words) [3] | Compound | ubiquitination of BRD4 (in words) [1] | CRBN abundance [2] | EID2 abundance [2] | proteins significantly depleted/downregulated, proteome-wide [2]
 | Cc1ncsc1-c1ccc([C@H](C)NC(=O)[C@@H]2C[C@@H](O)CN2C(=O)[C@@H](NC(=O)COCC(C)(COCCOCCOCCNc2cc3c(cc2F)C(=O)N(C2CCC(=O)NC2=O)C3=O)COCCOCCOCCOC(=O)C[C@@H]2N=C(c3ccc(Cl)cc3)c3c(sc(C)c3C)-n3c(C)nnc32)C(C)(C)C)cc1 (mixture of isomers) [AB3067 (27), (17S)-11-((2-(2-(2-((2-(2,6-dioxopiperidin-3-yl)-6-fluoro-1,3-dioxoisoindolin-5-yl)amino)ethoxy)ethoxy)ethoxy)methyl)-17-((2S,4R)-4-hydroxy-2-(((S)-1-(4-(4-methylthiazol-5-yl)phenyl)ethyl)carbamoyl)pyrrolidine-1-carbonyl)-11,18,18-trimethyl-15-oxo-3,6,9,13-tetraoxa-16-azanonadecyl 2-((S)-4-(4-chlorophenyl)-2,3,9-trimethyl-6H-thieno[3,2-f][1,2,4]triazolo[4,3-a][1,4]diazepin-6-yl)acetate] | occurs more rapidly than in either the CRBN KO or VHL KO cells | not significantly depleted | significantly downregulated | all three BET proteins, BRD2, BRD3 and BRD4, were significantly depleted
no observed degradation of VHL | Cc1ncsc1-c1ccc(CNC(=O)[C@@H]2C[C@@H](O)CN2C(=O)[C@@H](NC(=O)COCC(COCCOCCOCCNc2cc3c(cc2F)C(=O)N(C2CCC(=O)NC2=O)C3=O)(COCCOCCOCCOC(=O)C[C@@H]2N=C(c3ccc(Cl)cc3)c3c(sc(C)c3C)-n3c(C)nnc32)COCCOCCOCCOC(=O)C[C@@H]2N=C(c3ccc(Cl)cc3)c3c(sc(C)c3C)-n3c(C)nnc32)C(C)(C)C)cc1 (mixture of isomers) [AB3124 (86)] |  |  |  | 
 | Cc1ncsc1-c1ccc([C@H](C)NC(=O)[C@@H]2C[C@H](O)CN2C(=O)[C@@H](NC(=O)COCC(C)(COCCOCCOCCNc2cc3c(cc2F)C(=O)N(C2CCC(=O)N(C)C2=O)C3=O)COCCOCCOCCOC(=O)C[C@@H]2N=C(c3ccc(Cl)cc3)c3c(sc(C)c3C)-n3c(C)nnc32)C(C)(C)C)cc1 (mixture of isomers) [neg-cis-AB3067 (95), (17S)-11-((2-(2-(2-((6-fluoro-2-(1-methyl-2,6-dioxopiperidin-3-yl)-1,3-dioxoisoindolin-5-yl)amino)ethoxy)ethoxy)ethoxy)methyl)-17-((2S,4S)-4-hydroxy-2-(((S)-1-(4-(4-methylthiazol-5-yl)phenyl)ethyl)carbamoyl)pyrrolidine-1-carbonyl)-11,18,18-trimethyl-15-oxo-3,6,9,13-tetraoxa-16-azanonadecyl 2-((S)-4-(4-chlorophenyl)-2,3,9-trimethyl-6H-thieno[3,2-f][1,2,4]triazolo[4,3-a][1,4]diazepin-6-yl)acetate] |  |  |  | no protein was significantly downregulated
